Counter-ions that a name gives are not always drawn.
Tests used:
[1] = test system: osteoarthritic-induced allodynia (MIA-induced osteoarthritis); test: MIA-induced osteoarthritis in rats: mechanical (tactile) allodynia, paw withdrawal threshold to von Frey filaments; format: in vivo, rat; conditions: for progressive amelioration of the basal pain (PRE) found before daily treatments: Example A, three weeks i.p. b.i.d.; for progressive amelioration of the basal pain (PRE) found before daily treatments / analgesia (analgesic effect, POST) / analgesic effect (POST): example 1 60 mg/kg, Tramadol 20 mg/kg; for analgesia (analgesic effect, POST): day 1, single treatment, i.p.; for analgesia (analgesic effect, POST) / analgesic effect (POST): 30 min after treatment; for pain after treatment discontinuation (wash out): versus initial situation; for analgesic effect (POST): day 22, after three weeks of treatment i.p. b.i.d.
Method: Male Sprague-Dawley rats (Harlan, San Pietro Nastisone, Udine, Italia), weighing 50-75 g on arrival at the laboratory, were used. Animals were allowed to acclimate for one week in groups of five per cage in a room with constant temperature (21±1° C.) and relative humidity (60%), and free access to food and water ad libitum. Automatic light-on and -off allowed alternate light-dark cycles of 12 h:12 h, with light-on at 7:00 a.m. Procedures were approved by the Committee on Animal Research Ethics of ESTEVE and conformed to the guidelines of the IASP (Zimmermann, 1983). In particular, the duration of the experiments was kept as short as possible and the number of rats used was minimized.
Osteoarthritis in rats was induced by intraarticular (i.a.) injection of monosodium iodoacetate (MIA) in the right knee joint, essentially as described by Dunham et al. (1993). After one week of acclimation, rats were briefly anesthetized with isoflurane (5% in 02 at 600 cc/min; IsoFlo®, Veterinaria ESTEVE, MI, Italy) until lack of response to a toe pinch. Surgical area was swabbed with chlorohexidine and alcohol, then a single injection of MIA (50 μl of a 40 mg/ml solution in 0.9% saline, i.e. equal to 2 mg/injection) was delivered using a 28-gauge needle inserted into the joint space of the knee through the intra-patellar ligament, by a gentle flexion of the knee. Sham animals received, in parallel, an equal volume of 0.9% sterile saline.
The MIA dose to obtain a prolonged, marked decrease in mechanical thresholds to von Frey filaments pressure was selected on the basis of a dose-response experiment (not shown). After recovery, animals were returned to their home cage.
Rats […] to the test conditions beforehand were assigned into wire mesh bottom cylinders (transparent metacrylate, 300 mm high×200 mm diameter) and allowed to acclimatize prior the start of the experiment. Tactile allodynia was assessed by determination of the paw withdrawal threshold (PWT) to von Frey filaments stimulation, starting 1 to 15 grams, on the plantar surface of the hind paw. Each filament was applied 3 s until a withdrawal response occurred. A single response indicated a positive response. PWTs were assessed in both the inflamed (ipsilateral) and non-inflamed (contralateral) hind paw and expressed as grams. Control thresholds in the contralateral paw were established in a similar fashion. Nociceptive thresholds were measured prior to MIA injection (Day 0) then after 2 weeks (Day 14) in order to assess allodynia. Only rats with a significant decrease in the minimal pressure (threshold) to trigger ipsilateral versus contralateral hindpaw withdrawal were included in the pharmacological groups; non-responders (noninjured animals) were considered an exclusion criteria. Each animal was used in only one experiment, after which it was sacrificed by CO2.
OA was induced by MIA injection at day −14 in the intra-patellar ligament of the right hindpaw. Sham animals received, in parallel, 50 μl of sterile saline solution. Two weeks later, allodynic rats were characterized by a marked decrease in the minimal pressure (threshold) to trigger withdrawal of the ipsilateral hindpaw (vs. the contralateral hindpaw) when stimulated by using von Frey monofilaments. From day 1 rats received chronic treatment (i.p, b.i.d.) for three weeks (until day 22) with Example 1 or Tramadol for three weeks, and treatment was then discontinued and mechanical allodynia evaluated after 2 days and 7 days (days 24 and 29, respectively) (wash-out period) (FIG. 1).
Two weeks after MIA injection into the knee, rats suffering from mechanical allodynia received a chronic treatment (3 weeks i.p, b.i.d.) with Example 1 (60 mg/kg, FIG. 2A) or Tramadol (20 mg/kg, FIG. 2B). […]

[2] = test system: osteoarthritic-induced allodynia (MIA-induced osteoarthritis); test: as above; format: in vivo, rat; conditions: for progressive amelioration of the basal pain (PRE) found before daily treatments: Example B, i.p. b.i.d., oxycodone 2.5 mg/kg; for progressive amelioration of the basal pain (PRE) found before daily treatments / analgesia (POST): Ex.3 40 mg/kg; for analgesia (POST): day 1, single treatment, i.p., 30 min after treatment, Oxycodone 2.5 mg/kg; for analgesic effect (POST): day 29, repeated daily treatments i.p. b.i.d., Ex. 3 40 mg/kg after four weeks, Oxycodone 2.5 mg/kg after three weeks
[3] = target: sigma (σ-2) site (Homo sapiens, UniProt Q5BJF2); conditions: cited from earlier work
sigma (σ-2) site, sequence (Q5BJF2 whole entry): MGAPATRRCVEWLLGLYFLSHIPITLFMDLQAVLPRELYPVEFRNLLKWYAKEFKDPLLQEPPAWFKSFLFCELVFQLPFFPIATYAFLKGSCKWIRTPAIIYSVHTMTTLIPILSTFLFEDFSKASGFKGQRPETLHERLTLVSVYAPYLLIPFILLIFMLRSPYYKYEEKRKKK

[4] = target: sigma 1 (σ-1) site (Homo sapiens, UniProt Q99720); conditions: cited from earlier work
sigma 1 (σ-1) site, sequence (Q99720 whole entry): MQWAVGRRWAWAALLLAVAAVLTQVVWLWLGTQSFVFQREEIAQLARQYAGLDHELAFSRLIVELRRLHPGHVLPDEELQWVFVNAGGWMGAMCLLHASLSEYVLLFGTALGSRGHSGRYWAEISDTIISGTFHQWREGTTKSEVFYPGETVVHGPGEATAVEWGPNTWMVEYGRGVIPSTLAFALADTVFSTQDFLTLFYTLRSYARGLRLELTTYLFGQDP

[5] = listed as example 1, hydrochloride

## Cc1cc(OCCN2CCOCC2)nn1-c1ccc2ccccc2c1 [Example 1, 4-{2-[5-Methyl-1-(naphthalen-2-yl)-1H-pyrazol-3-yloxy]ethyl}morpholine hydrochloride]
[1]
  progressive amelioration of the basal pain (PRE) found before daily treatments: progressively ameliorates the basal pain
[1]; hydrochloride
  analgesia (analgesic effect, POST): ~40%
  analgesic effect (POST): 90%
[1]; [5]
  analgesia (analgesic effect, POST): around 40%
  analgesic effect (POST): around 90%
[1]; day 2 after discontinuation (day 24)
  pain after treatment discontinuation (wash out): still reduced
[1]; day 7 after discontinuation (day 29)
  pain after treatment discontinuation (wash out): went back to the initial situation
[1]; day 22, before first morning administration, example 1 60 mg/kg i.p. b.i.d.
  reduction of basal pain (PRE) found before daily treatments: 80%
[1]; repeated treatment i.p. b.i.d. for three weeks
  analgesic tolerance (loss of analgesic efficacy following repeated treatment): does not induce analgesic tolerance

## CC(=O)N1CCN(CCOCc2ccn(-c3ccc(F)c(F)c3)n2)CC1 [Example 3, 1-(4-(2-((1-(3,4-difluorophenyl)-1H-pyrazol-3-yl)methoxy)ethyl)piperazin-1-yl)ethanone hydrochloride]
[2]
  progressive amelioration of the basal pain (PRE) found before daily treatments: progressively ameliorates the basal pain
  analgesia (POST): around 5%
  analgesic effect (POST): around 60%
[2]; day 30, Ex.3 40 mg/kg i.p. b.i.d.
  reduction of basal pain (PRE) found before daily treatments: 65%

## COc1ccc2c3c1O[C@H]1C(=O)CC[C@@]4(O)[C@@H](C2)N(C)CC[C@]314 [Oxycodone, reference compound]
[2]
  progressive amelioration of the basal pain (PRE) found before daily treatments: not
  analgesia (POST): ~65%
  analgesic effect (POST): ~15%

## COc1cccc(C2(O)CCCCC2CN(C)C)c1 (stereo not drawn) [Tramadol, reference compound]
[1]
  progressive amelioration of the basal pain (PRE) found before daily treatments: not
  analgesia (analgesic effect, POST): around 90%
  analgesic effect (POST): ~10%

## SKF 10047
[3]
  affinity for the sigma (σ-2) site: micromolar
[4]
  affinity for the sigma 1 (σ-1) site: nanomolar

Source: patent US20170273948A1, “USE OF SIGMA RECEPTOR LIGANDS IN OSTEOARTHRITIS” (LABORATORIOS DEL DR ESTEVE S.A., priority 2014, published 2017)
